Results: patent US10916331B2, “Predicting drug-target interactions and uses for drug repositioning and repurposing” (GEORGETOWN UNIVERSITY, priority 2015, dated 2021)

Experiments:
[1] = test system: hookworm tubulin; conditions: background statement; cited from earlier work
[2] = target: T1, VEGFR-2 (Homo sapiens, UniProt P35968); experiment: Kinomescan active site-directed competition binding assay
T1 construct: purchased Discoverx (Kinomescan); host or cells: E. coli BL21-derived host (T7 phage) or HEK-293
T1 sequence (P35968 20-1356): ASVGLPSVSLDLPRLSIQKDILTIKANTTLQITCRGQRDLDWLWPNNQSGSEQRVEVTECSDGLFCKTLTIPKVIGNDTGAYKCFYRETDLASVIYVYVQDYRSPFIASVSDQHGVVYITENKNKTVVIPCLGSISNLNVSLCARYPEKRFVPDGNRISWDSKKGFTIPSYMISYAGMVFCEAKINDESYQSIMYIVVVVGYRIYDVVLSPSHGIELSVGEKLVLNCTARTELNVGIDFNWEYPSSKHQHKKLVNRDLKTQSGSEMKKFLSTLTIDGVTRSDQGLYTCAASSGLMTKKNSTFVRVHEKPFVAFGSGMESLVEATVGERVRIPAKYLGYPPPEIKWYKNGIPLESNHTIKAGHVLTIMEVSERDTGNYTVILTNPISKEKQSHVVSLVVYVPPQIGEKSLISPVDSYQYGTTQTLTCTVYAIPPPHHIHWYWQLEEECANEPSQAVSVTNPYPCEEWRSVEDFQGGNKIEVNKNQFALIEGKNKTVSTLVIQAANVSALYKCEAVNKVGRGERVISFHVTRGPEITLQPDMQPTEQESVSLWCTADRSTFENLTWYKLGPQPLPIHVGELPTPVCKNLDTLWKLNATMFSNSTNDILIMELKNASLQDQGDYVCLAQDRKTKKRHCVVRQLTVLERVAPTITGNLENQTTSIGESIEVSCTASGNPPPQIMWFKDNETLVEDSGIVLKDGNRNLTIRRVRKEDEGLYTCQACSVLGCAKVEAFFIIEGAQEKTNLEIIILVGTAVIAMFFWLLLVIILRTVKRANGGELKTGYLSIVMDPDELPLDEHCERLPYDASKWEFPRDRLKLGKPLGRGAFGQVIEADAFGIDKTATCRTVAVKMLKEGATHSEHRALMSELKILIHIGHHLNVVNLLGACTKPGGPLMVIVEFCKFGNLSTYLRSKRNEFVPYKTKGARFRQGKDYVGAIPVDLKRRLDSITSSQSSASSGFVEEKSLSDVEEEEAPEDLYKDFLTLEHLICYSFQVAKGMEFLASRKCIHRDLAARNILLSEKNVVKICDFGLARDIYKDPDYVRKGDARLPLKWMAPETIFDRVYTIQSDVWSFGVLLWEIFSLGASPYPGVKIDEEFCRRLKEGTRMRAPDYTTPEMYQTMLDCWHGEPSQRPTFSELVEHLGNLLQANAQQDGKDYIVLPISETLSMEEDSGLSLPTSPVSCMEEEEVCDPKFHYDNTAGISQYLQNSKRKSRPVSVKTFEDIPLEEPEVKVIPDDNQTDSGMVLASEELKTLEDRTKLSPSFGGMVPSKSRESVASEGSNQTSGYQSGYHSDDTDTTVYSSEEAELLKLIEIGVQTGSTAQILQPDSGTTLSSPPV
Description: Kinase-tagged T7 phage strains were grown in parallel in 24-well blocks in an E. coli host derived from the BL21 strain. […] The remaining kinases were produced in HEK-293 cells and subsequently tagged with DNA for qPCR detection. […] The liganded beads were blocked with excess biotin and washed with blocking buffer (SeaBlock (Pierce), 1% BSA, 0.05% Tween 20, 1 mM DTT) to remove unbound ligand and to reduce non-specific phage binding. […] All reactions were performed in polypropylene 384-well plates in a final volume of 0.04 ml. […] The kinase concentration in the eluates was measured by qPCR.
An 11-point 3-fold serial dilution of each test compound was prepared in 100% DMSO at 100× final test concentration and subsequently diluted to 1× in the assay (final DMSO concentration=1%).

[3] = target: T2, DYRK1A (Homo sapiens, UniProt Q13627); experiment: as above; conditions: MBZ at 10 μM, lower = stronger hit, read-out: Percent Control at 10 μM
T2 construct: purchased Discoverx (Kinomescan); host or cells: E. coli BL21-derived host (T7 phage) or HEK-293
Description: (§1) Kinase assays were performed using Kinomescan, by Discoverx, CA, USA and Caliper LabChip 3000 by Caliper Life sciences, USA as described previously. The determination of MBZ thermodynamic binding affinities (Kd) to kinase targets predicted by RepurposeVS was performed by using active site-directed competition binding. Kinase-tagged T7 phage strains were grown in parallel in 24-well blocks in an E. coli host derived from the BL21 strain. E. coli bacteria were grown to log-phase and infected with T7 phage from a frozen stock (multiplicity of infection=0.4) and incubated with shaking at 32° C. until lysis (90-150 minutes). The lysates were centrifuged (6,000×g) and filtered (0.2 μm sieves) to remove cell debris. The remaining kinases were produced in HEK-293 cells and subsequently tagged with DNA for qPCR detection. […] The liganded beads were blocked with excess biotin and washed with blocking buffer (SeaBlock (Pierce), 1% BSA, 0.05% Tween 20, 1 mM DTT) to remove unbound ligand and to reduce non-specific phage binding. Binding reactions were assembled by combining kinases, control liganded affinity beads, and mebendazole in 1× binding buffer (20% SeaBlock, 0.17×PBS, 0.05% Tween 20, 6 mM DTT). Mebendazole was prepared as 40× stocks in 100% DMSO and directly diluted into the assay. All reactions were performed in polypropylene 384-well plates in a final volume of 0.04 ml. The assay plates were incubated at room temperature with shaking for 1 hour and the affinity beads were washed with wash buffer (lx PBS, 0.05% Tween 20). […] The kinase concentration in the eluates was measured by qPCR. […] The amount of kinase captured in test versus control samples were measured by using a quantitative, precise and ultra-sensitive qPCR method that detects the associated DNA label. Using (13), the primary screen binding interactions are reported as ‘% Ctrl’ (Percent kinase remaining activity), where lower numbers indicate stronger hits. In a similar manner, binding constants (Kd) for mebendazole-kinase interactions are calculated by measuring the amount of kinase captured as a function of the mebendazole concentration in a dose response manner. […] Binding constants (Kd) were calculated with a standard dose-response curve (drug dose (x-axis)−qPCR signal (y-axis)) using the Hill equation in (14) with the Hill Slope set to −1.

[4] = target: T3, KIT (Homo sapiens, UniProt P10721); experiment: as above; conditions: listed as 'KIT (D816V)'
T3 construct: purchased Discoverx (Kinomescan); host or cells: E. coli BL21-derived host (T7 phage) or HEK-293
Description: as §1

[5] = target: T4, ABL1-phosphorylated (Homo sapiens, UniProt P00519); experiment: as above
T4 construct: purchased Discoverx (Kinomescan); host or cells: E. coli BL21-derived host (T7 phage) or HEK-293
Description: as §1

[6] = target: T5, ABL1-nonphosphorylated (Homo sapiens, UniProt P00519); experiment: as above; conditions: MBZ at 10 μM, lower = stronger hit, read-out: Percent Control at 10 μM
T5 construct: purchased Discoverx (Kinomescan); host or cells: E. coli BL21-derived host (T7 phage) or HEK-293
Description: as §1

[7] = target: T6, PDGFR-B (Homo sapiens, UniProt P09619); experiment: as above
T6 construct: purchased Discoverx (Kinomescan); host or cells: E. coli BL21-derived host (T7 phage) or HEK-293
Description: as §1

[8] = target: T7, MET (Homo sapiens, UniProt P08581); experiment: as above; conditions: MBZ at 10 μM, lower = stronger hit, read-out: Percent Control at 10 μM
T7 construct: purchased Discoverx (Kinomescan); host or cells: E. coli BL21-derived host (T7 phage) or HEK-293
Description: as §1

[9] = target: T8, JAK3 (Homo sapiens, UniProt P52333); experiment: as above; conditions: MBZ at 10 μM, lower = stronger hit, read-out: Percent Control at 10 μM
T8 construct: purchased Discoverx (Kinomescan); host or cells: E. coli BL21-derived host (T7 phage) or HEK-293
Description: as §1

[10] = target: T9, ABL1(T315I)-phosphorylated (Homo sapiens, UniProt P00519, T315I); experiment: as above; conditions: MBZ at 10 μM, lower = stronger hit, read-out: Percent Control at 10 μM
T9 construct: purchased Discoverx (Kinomescan); host or cells: E. coli BL21-derived host (T7 phage) or HEK-293
Description: as §1

[11] = target: T10, DYRK1B (Homo sapiens, UniProt Q9Y463); experiment: as above
T10 construct: purchased Discoverx (Kinomescan); host or cells: E. coli BL21-derived host (T7 phage) or HEK-293
T10 sequence (Q9Y463 whole entry): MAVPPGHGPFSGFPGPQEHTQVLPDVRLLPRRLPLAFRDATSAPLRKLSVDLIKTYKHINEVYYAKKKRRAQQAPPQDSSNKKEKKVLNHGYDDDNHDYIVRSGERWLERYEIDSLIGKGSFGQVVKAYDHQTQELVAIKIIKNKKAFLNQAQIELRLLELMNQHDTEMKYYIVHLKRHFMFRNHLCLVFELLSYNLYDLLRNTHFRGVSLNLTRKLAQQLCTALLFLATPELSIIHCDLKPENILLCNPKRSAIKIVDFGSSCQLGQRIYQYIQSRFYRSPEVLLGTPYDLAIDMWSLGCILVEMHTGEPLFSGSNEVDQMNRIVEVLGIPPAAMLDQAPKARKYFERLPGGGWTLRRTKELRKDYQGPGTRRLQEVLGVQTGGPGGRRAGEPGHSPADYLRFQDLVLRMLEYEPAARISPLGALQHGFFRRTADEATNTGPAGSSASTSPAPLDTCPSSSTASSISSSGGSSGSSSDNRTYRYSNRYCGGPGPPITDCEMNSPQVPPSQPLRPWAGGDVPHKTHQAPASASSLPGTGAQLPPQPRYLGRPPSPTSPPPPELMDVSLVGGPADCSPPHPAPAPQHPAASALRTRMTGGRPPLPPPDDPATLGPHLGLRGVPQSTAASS
Description: as §1

[12] = target: T11, JNK2 (Homo sapiens, UniProt P45984); experiment: as above
T11 construct: purchased Discoverx (Kinomescan); host or cells: E. coli BL21-derived host (T7 phage) or HEK-293
T11 sequence (P45984 whole entry): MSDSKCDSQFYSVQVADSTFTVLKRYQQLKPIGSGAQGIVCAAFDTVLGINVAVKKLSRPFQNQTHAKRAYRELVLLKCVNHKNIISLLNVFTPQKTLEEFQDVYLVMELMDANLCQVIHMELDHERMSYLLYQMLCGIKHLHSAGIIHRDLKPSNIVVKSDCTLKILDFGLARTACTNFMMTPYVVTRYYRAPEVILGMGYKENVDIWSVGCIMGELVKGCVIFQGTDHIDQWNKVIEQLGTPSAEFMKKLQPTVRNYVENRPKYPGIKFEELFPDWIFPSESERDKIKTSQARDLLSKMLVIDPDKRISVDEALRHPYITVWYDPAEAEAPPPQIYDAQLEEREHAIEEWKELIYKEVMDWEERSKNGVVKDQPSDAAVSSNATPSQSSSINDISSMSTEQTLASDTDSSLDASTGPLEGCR
Description: as §1

[13] = target: T12, ABL1(E255K)-phosphorylated (Homo sapiens, UniProt P00519, E255K); experiment: as above; conditions: MBZ at 10 μM, lower = stronger hit, read-out: Percent Control at 10 μM
T12 construct: purchased Discoverx (Kinomescan); host or cells: E. coli BL21-derived host (T7 phage) or HEK-293
Description: as §1

[14] = target: T13, KIT (D816V) (Homo sapiens, UniProt P10721, D816V); experiment: as above; conditions: MBZ at 10 μM; listed as 'KIT (D816V)', value in parentheses; read-out: Percent Control at 10 μM
T13 construct: purchased Discoverx (Kinomescan); host or cells: E. coli BL21-derived host (T7 phage) or HEK-293
Description: as §1

[15] = target: T14, SRC (Homo sapiens, UniProt P12931); experiment: as above; conditions: MBZ at 10 μM, lower = stronger hit, read-out: Percent Control at 10 μM
T14 construct: purchased Discoverx (Kinomescan); host or cells: E. coli BL21-derived host (T7 phage) or HEK-293
Description: as §1

[16] = target: T15, JNK1 (Homo sapiens, UniProt P45983); experiment: as above; conditions: MBZ at 10 μM, lower = stronger hit, read-out: Percent Control at 10 μM
T15 construct: purchased Discoverx (Kinomescan); host or cells: E. coli BL21-derived host (T7 phage) or HEK-293
Description: as §1

[17] = target: T16, JNK3 (Homo sapiens, UniProt P53779); experiment: as above
T16 construct: purchased Discoverx (Kinomescan); host or cells: E. coli BL21-derived host (T7 phage) or HEK-293
T16 sequence (P53779 whole entry): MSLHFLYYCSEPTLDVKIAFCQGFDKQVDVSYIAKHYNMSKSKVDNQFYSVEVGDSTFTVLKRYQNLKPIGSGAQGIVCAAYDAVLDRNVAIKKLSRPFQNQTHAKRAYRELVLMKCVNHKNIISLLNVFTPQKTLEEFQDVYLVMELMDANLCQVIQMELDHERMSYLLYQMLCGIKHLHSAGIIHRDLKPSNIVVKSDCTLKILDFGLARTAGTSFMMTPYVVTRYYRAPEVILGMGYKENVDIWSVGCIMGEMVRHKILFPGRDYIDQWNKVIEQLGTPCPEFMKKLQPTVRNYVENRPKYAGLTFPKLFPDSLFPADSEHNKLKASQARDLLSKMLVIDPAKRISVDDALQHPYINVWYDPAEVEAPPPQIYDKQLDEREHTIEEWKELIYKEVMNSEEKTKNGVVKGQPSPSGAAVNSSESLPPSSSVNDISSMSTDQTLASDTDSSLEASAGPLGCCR
Description: as §1

[18] = target: T17, PIK3CG (Homo sapiens, UniProt P48736); experiment: as above; conditions: MBZ at 10 μM, lower = stronger hit, read-out: Percent Control at 10 μM
T17 construct: purchased Discoverx (Kinomescan); host or cells: E. coli BL21-derived host (T7 phage) or HEK-293
Description: as §1

[19] = target: T18, GSK3B (Homo sapiens, UniProt P49841); experiment: as above; conditions: MBZ at 10 μM, lower = stronger hit, read-out: Percent Control at 10 μM
T18 construct: purchased Discoverx (Kinomescan); host or cells: E. coli BL21-derived host (T7 phage) or HEK-293
T18 sequence (P49841 whole entry): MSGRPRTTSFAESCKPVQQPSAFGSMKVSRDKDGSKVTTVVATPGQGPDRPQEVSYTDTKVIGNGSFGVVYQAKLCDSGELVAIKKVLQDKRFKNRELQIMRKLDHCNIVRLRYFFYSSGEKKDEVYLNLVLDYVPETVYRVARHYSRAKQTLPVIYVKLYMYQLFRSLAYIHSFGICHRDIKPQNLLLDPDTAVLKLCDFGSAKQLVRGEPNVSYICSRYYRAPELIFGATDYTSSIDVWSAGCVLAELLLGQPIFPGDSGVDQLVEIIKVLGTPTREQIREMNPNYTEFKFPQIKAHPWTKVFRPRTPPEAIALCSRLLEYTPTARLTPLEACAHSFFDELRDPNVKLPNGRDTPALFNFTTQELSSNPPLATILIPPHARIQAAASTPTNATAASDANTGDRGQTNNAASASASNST
Description: as §1

[20] = target: T19, CDK7 (Homo sapiens, UniProt P50613); experiment: as above
T19 construct: purchased Discoverx (Kinomescan); host or cells: E. coli BL21-derived host (T7 phage) or HEK-293
T19 sequence (P50613 whole entry): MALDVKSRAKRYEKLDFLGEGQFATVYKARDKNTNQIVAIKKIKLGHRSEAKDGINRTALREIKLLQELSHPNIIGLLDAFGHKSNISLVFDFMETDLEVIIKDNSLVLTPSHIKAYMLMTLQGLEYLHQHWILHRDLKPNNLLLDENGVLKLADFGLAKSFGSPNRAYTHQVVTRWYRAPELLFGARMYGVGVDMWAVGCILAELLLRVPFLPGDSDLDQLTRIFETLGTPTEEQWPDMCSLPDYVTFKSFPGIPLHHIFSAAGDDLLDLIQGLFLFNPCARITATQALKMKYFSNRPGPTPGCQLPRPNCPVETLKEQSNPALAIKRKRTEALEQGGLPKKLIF
Description: as §1

[21] = target: T20, ULK2 (Homo sapiens, UniProt Q8IYT8); experiment: as above; conditions: MBZ at 10 μM, lower = stronger hit, read-out: Percent Control at 10 μM
T20 construct: purchased Discoverx (Kinomescan); host or cells: E. coli BL21-derived host (T7 phage) or HEK-293
Description: as §1

[22] = target: T21, P38-alpha (Homo sapiens, UniProt Q16539); experiment: as above
T21 construct: purchased Discoverx (Kinomescan); host or cells: E. coli BL21-derived host (T7 phage) or HEK-293
T21 sequence (Q16539 whole entry): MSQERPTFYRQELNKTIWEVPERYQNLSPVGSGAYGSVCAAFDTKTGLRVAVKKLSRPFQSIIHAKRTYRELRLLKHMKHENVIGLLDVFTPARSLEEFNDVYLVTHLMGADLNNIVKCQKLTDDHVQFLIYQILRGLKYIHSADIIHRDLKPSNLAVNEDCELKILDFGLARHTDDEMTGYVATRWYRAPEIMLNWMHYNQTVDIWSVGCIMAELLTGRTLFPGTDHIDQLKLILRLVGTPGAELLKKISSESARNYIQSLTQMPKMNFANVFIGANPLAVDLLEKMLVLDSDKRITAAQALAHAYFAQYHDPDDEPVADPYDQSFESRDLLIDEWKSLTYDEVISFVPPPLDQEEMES
Description: as §1

[23] = target: T22, PDGFR-A (Homo sapiens, UniProt P16234); experiment: as above
T22 construct: purchased Discoverx (Kinomescan); host or cells: E. coli BL21-derived host (T7 phage) or HEK-293
T22 sequence (P16234 24-1089): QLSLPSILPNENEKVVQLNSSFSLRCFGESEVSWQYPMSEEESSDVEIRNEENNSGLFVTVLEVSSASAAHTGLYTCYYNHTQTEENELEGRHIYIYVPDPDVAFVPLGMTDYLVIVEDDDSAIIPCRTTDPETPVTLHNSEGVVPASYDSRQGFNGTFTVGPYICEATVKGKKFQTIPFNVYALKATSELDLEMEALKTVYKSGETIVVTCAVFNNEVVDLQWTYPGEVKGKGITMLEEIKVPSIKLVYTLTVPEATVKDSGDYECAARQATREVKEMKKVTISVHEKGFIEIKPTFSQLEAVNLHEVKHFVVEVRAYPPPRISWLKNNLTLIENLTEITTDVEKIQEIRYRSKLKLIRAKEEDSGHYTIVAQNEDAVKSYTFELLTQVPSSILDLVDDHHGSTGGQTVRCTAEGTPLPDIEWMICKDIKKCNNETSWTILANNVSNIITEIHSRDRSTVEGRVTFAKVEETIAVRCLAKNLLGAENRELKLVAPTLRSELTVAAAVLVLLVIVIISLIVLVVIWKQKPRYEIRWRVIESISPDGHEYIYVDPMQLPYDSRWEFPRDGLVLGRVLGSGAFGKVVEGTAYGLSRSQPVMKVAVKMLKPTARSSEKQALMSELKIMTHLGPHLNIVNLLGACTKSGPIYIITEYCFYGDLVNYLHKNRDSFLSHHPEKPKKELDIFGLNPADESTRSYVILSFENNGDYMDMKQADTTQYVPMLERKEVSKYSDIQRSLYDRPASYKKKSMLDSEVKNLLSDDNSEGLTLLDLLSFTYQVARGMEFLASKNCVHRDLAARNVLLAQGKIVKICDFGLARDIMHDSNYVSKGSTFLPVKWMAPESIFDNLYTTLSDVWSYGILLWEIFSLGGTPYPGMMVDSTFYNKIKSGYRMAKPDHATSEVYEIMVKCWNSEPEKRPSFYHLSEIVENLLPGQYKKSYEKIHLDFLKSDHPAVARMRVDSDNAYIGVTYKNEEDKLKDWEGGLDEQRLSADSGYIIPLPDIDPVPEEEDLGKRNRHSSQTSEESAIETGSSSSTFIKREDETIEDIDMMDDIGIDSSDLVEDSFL
Description: as §1

[24] = target: T23, CSNK1D (Homo sapiens, UniProt P48730); experiment: as above; conditions: MBZ at 10 μM, lower = stronger hit, read-out: Percent Control at 10 μM
T23 construct: purchased Discoverx (Kinomescan); host or cells: E. coli BL21-derived host (T7 phage) or HEK-293
Description: as §1

[25] = test system: mammalian tubulin; conditions: background statement; cited from earlier work
[26] = 11-point dose response, read-out: Binding Affinity (Kd)
[27] = MBZ at 10 μM, lower = stronger hit, read-out: Percent Control at 10 μM

In the case of `COC(=O)Nc1nc2ccc(C(=O)c3ccccc3)cc2[nH]1` [MBZ, mebendazole], the “inhibition of hookworm tubulin” value [1] is given as “potent nanomolar inhibition”, the Kd [2, 26] is given as 3600 nM and the remaining binding at 10 µM [2, 27] is given as 30%. For the same compound, the remaining binding at 10 µM [3] was 34%, the remaining binding at 10 µM ([4]; MBZ at 10 μM, value outside parentheses, read-out: Percent Control at 10 μM) was 7.4% and the Kd [4, 26] was 750 nM. The Kd [5, 26] was 120 nM, the remaining binding at 10 µM [5, 27] was 0.9% and the remaining binding at 10 µM [6] was 2%. It also gave a Kd [7, 26] of 660 nM, a remaining binding at 10 µM [7, 27] of 3.2% and a remaining binding at 10 µM [8] of 32%. It also gave a remaining binding at 10 µM [9] of 29%, a remaining binding at 10 µM [10] of 3.2% and a Kd [11, 26] of 340 nM. For the same compound, the remaining binding at 10 µM [11, 27] was 5.6%, the Kd [12, 26] was 1090 nM and the remaining binding at 10 µM [12, 27] was 9.6%. It also gave a remaining binding at 10 µM [13] of 2.2%, a remaining binding at 10 µM [14] of 33% and a remaining binding at 10 µM [15] of 34%. For the same compound, the remaining binding at 10 µM [16] was 14%, the Kd [17, 26] was 410 nM and the remaining binding at 10 µM [17, 27] was 3%. It also gave a remaining binding at 10 µM [18] of 18%, a remaining binding at 10 µM [19] of 35% and a Kd [20, 26] of 390 nM. The remaining binding at 10 µM [20, 27] was 11%, the remaining binding at 10 µM [21] was 30% and the Kd [22, 26] was 1660 nM. The remaining binding at 10 µM [22, 27] was 17%, the Kd [23, 26] was 820 nM and the remaining binding at 10 µM [23, 27] was 7.8%. The remaining binding at 10 µM [24] was 36% and the “potency on mammalian tubulin relative to hookworm tubulin (fold less)” value [25] was 1000 ×.
